What is called IC50 is the concentration at which inhibition is half-maximal. A lower IC50 goes with higher potency.

Where only a bound is given, the exact number is not on record here.

The text below walks through data of patent publication US10030020B2, “Spirocycle compounds and methods of making and using same” (Abide Therapeutics, Inc., priority 2016, dated 2018).

The target of assay [1] is T1, ABHD6 (Mus musculus (Mouse), UniProt Q8R2Y0). The experiment in a line: Mouse brain proteomes from inhibitor treated mice (oral gavage, sacrificed 4 h after administration, ABPP analysis), ABHD6. It is filed as in vivo, mouse (C57Bl/6J). As to conditions: 5 mg/kg oral gavage. Here is the method:
(§1) Preparation of Mouse Brain Proteomes from Inhibitor Treated Mice.
(§2) Inhibitors were administered to wild-type C57Bl/6J by oral gavage in a vehicle, e.g. PEG400/Ethanol/PBS (7/2/1). Each animal was sacrificed 4 h following administration and brain proteomes were prepared and analyzed according to previously established methods (See Niphakis, M. J., et al. (2011) ACS Chem. Neurosci. and Long, J. Z., et al. Nat. Chem. Biol. 5:37-44). Data from this assay is shown in Table 2 (% inhibition at 5 mg/kg).

Assay [2] addresses T2, MAGL (Mus musculus (Mouse), UniProt O35678). Kind of assay: Mouse brain proteomes from inhibitor treated mice (oral gavage, sacrificed 4 h after administration, ABPP analysis). It is filed as in vivo, mouse (C57Bl/6J). As to conditions: 5 mg/kg oral gavage. Here is the method: as §1, §2
In assay [3] the target is T3, FAAH (Mus musculus (Mouse), UniProt O08914). The experiment in a line: In vitro competitive activity-based protein profiling (mouse brain membrane fraction or cell lysates), FAAH band. Type of assay: biochemical. The following applies: mouse proteome; for inhibition at 1 µM: read-out: FAAH % Inh 1 μM (mouse); for IC50: competitive ABPP. An outline of the steps:
(§3)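 Competitive ABPP: proteome 1.0 mg/mL protein + inhibitor, 30 min, 37° C; FP-Rh probe (stock 50 μM in DMSO) added, 30 min, 37° C; SDS quench, SDS-PAGE, fluorescent band intensity read.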

In assay [4] the target is T3, FAAH. Kind of assay: Mouse brain proteomes from inhibitor treated mice (oral gavage, sacrificed 4 h after administration, ABPP analysis), FAAH. It is filed as in vivo, mouse (C57Bl/6J). The following applies: 5 mg/kg oral gavage. The method, then:
as §1, §2

The target of assay [5] is T2, MAGL. Kind of assay: In vitro competitive activity-based protein profiling (mouse brain membrane fraction or cell lysates), MAGL band. It is filed as biochemical. The following applies: mouse proteome; for inhibition at 1 µM: read-out: MAGL % Inh 1 μM (mouse); for IC50: competitive ABPP. The method, then:
In Vitro Competitive Activity-Based Protein Profiling.
Proteomes (mouse brain membrane fraction or cell lysates) (50 μL, 1.0 mg/mL total protein concentration) were preincubated with varying concentrations of inhibitors at 37° C. After 30 min, FP—Rh (1.0 μL, 50 μM in DMSO) was added and the mixture was incubated for another 30 min at 37° C. Reactions were quenched with SDS loading buffer (50 μL-4×) and run on SDS-PAGE.

Assay [6] deals with T1, ABHD6. The experiment in a line: In vitro competitive activity-based protein profiling (mouse brain membrane fraction or cell lysates), ABHD6 band. It is filed as biochemical. The following applies: mouse proteome; for inhibition at 1 µM: read-out: ABHD6 % Inh 1 μM (mouse); for IC50: competitive ABPP. An outline of the steps: as §3

T2 sequence (O35678 whole entry): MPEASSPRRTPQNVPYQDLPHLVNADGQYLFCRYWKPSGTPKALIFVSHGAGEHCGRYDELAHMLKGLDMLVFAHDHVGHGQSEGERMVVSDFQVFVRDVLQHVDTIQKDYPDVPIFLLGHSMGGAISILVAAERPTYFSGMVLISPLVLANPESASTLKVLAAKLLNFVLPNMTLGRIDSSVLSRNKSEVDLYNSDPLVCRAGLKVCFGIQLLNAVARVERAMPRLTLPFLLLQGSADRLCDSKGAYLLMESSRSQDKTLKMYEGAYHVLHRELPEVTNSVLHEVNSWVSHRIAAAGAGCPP
T3 sequence (O08914 whole entry): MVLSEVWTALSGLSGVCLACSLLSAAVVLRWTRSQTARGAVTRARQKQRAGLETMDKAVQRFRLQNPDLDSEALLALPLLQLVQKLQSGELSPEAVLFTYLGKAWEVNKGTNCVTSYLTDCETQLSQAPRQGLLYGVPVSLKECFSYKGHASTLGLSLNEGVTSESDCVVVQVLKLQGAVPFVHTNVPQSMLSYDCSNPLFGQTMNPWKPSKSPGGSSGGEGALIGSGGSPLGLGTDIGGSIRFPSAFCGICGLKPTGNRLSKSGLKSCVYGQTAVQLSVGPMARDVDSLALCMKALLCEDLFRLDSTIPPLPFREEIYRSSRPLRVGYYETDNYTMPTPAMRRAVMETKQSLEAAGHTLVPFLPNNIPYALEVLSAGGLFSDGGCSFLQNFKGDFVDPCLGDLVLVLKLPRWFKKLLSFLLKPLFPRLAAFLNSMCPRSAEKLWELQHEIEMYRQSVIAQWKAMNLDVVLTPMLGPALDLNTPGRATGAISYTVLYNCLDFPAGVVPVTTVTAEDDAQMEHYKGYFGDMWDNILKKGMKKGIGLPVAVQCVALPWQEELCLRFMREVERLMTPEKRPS
T1 sequence (Q8R2Y0 whole entry): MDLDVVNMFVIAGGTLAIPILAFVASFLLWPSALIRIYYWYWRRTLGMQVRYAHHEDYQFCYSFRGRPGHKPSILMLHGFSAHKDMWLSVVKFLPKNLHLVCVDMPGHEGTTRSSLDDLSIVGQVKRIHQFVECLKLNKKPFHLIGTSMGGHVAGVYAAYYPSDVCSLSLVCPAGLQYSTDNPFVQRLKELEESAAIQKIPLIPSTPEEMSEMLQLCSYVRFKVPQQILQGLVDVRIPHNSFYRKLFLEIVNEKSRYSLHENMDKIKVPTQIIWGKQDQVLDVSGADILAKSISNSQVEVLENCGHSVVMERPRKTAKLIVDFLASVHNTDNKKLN

`CN1CCC(Oc2cc(CN3CCCC34CCN(C(=O)OC(C(F)(F)F)C(F)(F)F)CC4)cc(C(F)(F)F)c2)CC1` [Example 166, 1,1,1,3,3,3-Hexafluoropropan-2-yl 1-(3-(1-methylpiperidin-4-yloxy)-5-(trifluoromethyl)benzyl)-1,8-diazaspiro[4.5]decane-8-carboxylate]: the “ABHD6 % Inh 5 mg/kg (mouse)” value on ABHD6 [1] is reported as “# (# is <25%)”. Moreover, the “MAGL % Inh 5 mg/kg (mouse)” value on MAGL [2] is recorded as “# (# is <25%)”. For the same molecule, the values for the inhibition at 1 µM on FAAH [3], on MAGL [5] and on ABHD6 [6] were less than 25%, more than 75% and less than 25%, respectively. The IC50 was more than 1 µM on FAAH [3], less than 0.1 µM at MAGL [5] and more than 1 µM at ABHD6 [6]. Further, at FAAH [4], the “FAAH % Inh 5 mg/kg (mouse)” value is given as “# (# is <25%)”.

In the case of `O=C(OC(C(F)(F)F)C(F)(F)F)N1CCC2(CCCN2Cc2ccc(Cl)cc2N2CC3CCC(C2)O3)CC1` [Example 75, 1,1,1,3,3,3-Hexafluoropropan-2-yl 1-(2-(8-oxa-3-azabicyclo[3.2.1]octan-3-yl)-4-chlorobenzyl)-1,8-diazaspiro[4.5]decane-8-carboxylate], at ABHD6 [1], the “ABHD6 % Inh 5 mg/kg (mouse)” value is “# (# is <25%)”. The “MAGL % Inh 5 mg/kg (mouse)” value at MAGL [2] is “### (### is ≥75%)”. The inhibition at 1 µM at FAAH [3] is less than 25%; at MAGL [5] it was more than 75%; at ABHD6 [6] it was less than 25%. Further, the results for the IC50 at FAAH [3], on MAGL [5] and at ABHD6 [6] were more than 1 µM, less than 0.1 µM and more than 1 µM, respectively. The “FAAH % Inh 5 mg/kg (mouse)” value at FAAH [4] is recorded as “# (# is <25%)”.

With `CC1(C)CC2(CCN(C(=O)OC(C(F)(F)F)C(F)(F)F)CC2)CN1Cc1ccc(Cl)cc1N1CCOCC1` [Example 50, 1,1,1,3,3,3-Hexafluoropropan-2-yl 2-(4-chloro-2-morpholinobenzyl)-3,3-dimethyl-2,8-diazaspiro[4.5]decane-8-carboxylate], the “ABHD6 % Inh 5 mg/kg (mouse)” value at ABHD6 [1] is given as “# (# is <25%)”. In addition, the “MAGL % Inh 5 mg/kg (mouse)” value on MAGL [2] is “## (## is equal to or greater than 25% but less than 75%)”. Moreover, the inhibition at 1 µM at FAAH [3] was less than 25%; at MAGL [5], more than 75%; at ABHD6 [6] it was 25 to 75%. The IC50 was more than 1 µM at FAAH [3], less than 0.1 µM at MAGL [5] and more than 1 µM on ABHD6 [6]. Also, the “FAAH % Inh 5 mg/kg (mouse)” value at FAAH [4] is “# (# is <25%)”.

`CS(=O)(=O)N1CCN(c2cc(CN3CCCC34CCN(C(=O)OC(C(F)(F)F)C(F)(F)F)CC4)cc(C(F)(F)F)c2)CC1` [Example 43, 1,1,1,3,3,3-Hexafluoropropan-2-yl 1-(3-(4-(methylsulfonyl)piperazin-1-yl)-5-(trifluoromethyl)benzyl)-1,8-diazaspiro[4.5]decane-8-carboxylate]: the “ABHD6 % Inh 5 mg/kg (mouse)” value on ABHD6 [1] is “# (# is <25%)”. Also, the “MAGL % Inh 5 mg/kg (mouse)” value on MAGL [2] is on record as “## (## is equal to or greater than 25% but less than 75%)”. Moreover, the inhibition at 1 µM is less than 25% on FAAH [3], more than 75% at MAGL [5] and less than 25% on ABHD6 [6]. Also, the IC50 on FAAH [3] is more than 1 µM; on MAGL [5], less than 0.1 µM; on ABHD6 [6], more than 1 µM. Further, the “FAAH % Inh 5 mg/kg (mouse)” value on FAAH [4] is “# (# is <25%)”.

As to `CCN1CCN(c2cccc(CN3CCCC34CCN(C(=O)OC(C(F)(F)F)C(F)(F)F)CC4)c2Cl)CC1` [Example 116, 1,1,1,3,3,3-Hexafluoropropan-2-yl 1-(2-chloro-3-(4-ethylpiperazin-1-yl)benzyl)-1,8-diazaspiro[4.5]decane-8-carboxylate], the values for the inhibition at 1 µM on FAAH [3], at MAGL [5] and on ABHD6 [6] were less than 25%, more than 75% and less than 25%, respectively. For the same molecule, the IC50 on FAAH [3] is more than 1 µM; on MAGL [5] it was less than 0.1 µM; on ABHD6 [6], more than 1 µM.

For `O=C(OC(C(F)(F)F)C(F)(F)F)N1CCC2(CCN(Cc3ccc4c(c3)COC4)C2)CC1` [Example 153, 1,1,1,3,3,3-Hexafluoropropan-2-yl 2-((1,3-dihydroisobenzofuran-5-yl)methyl)-2,8-diazaspiro[4.5]decane-8-carboxylate], the inhibition at 1 µM on FAAH [3] was less than 25%; at MAGL [5], more than 75%; at ABHD6 [6], not below 75%. In addition, the IC50 on FAAH [3] was more than 1 µM; at MAGL [5], 0.1 to 1 µM; at ABHD6 [6], less than 0.1 µM.

For the molecule `O=C(O)C1COCCN1c1cc(C(F)(F)F)ccc1CN1CCC2(CCN(C(=O)OC(C(F)(F)F)C(F)(F)F)CC2)C1` (stereo not shown) [Example 220], the inhibition at 1 µM on FAAH [3] is less than 25%; at MAGL [5], 25 to 75%; on ABHD6 [6] it was less than 25%.

As to `COc1ccccc1CN1CCCC12CCN(C(=O)OC(C(F)(F)F)C(F)(F)F)CC2` [Example 3, 1,1,1,3,3,3-Hexafluoropropan-2-yl 1-(2-methoxybenzyl)-1,8-diazaspiro[4.5]decane-8-carboxylate], the inhibition at 1 µM at FAAH [3] is less than 25%; on MAGL [5] it was more than 75%; on ABHD6 [6], less than 25%. Moreover, the IC50 at FAAH [3] is more than 1 µM; on MAGL [5], 0.1 to 1 µM; on ABHD6 [6], more than 1 µM.

On to `O=C(OC(C(F)(F)F)C(F)(F)F)N1CCC2(CCCN2Cc2ccc(C(F)(F)F)cc2OC2CCS(=O)(=O)CC2)CC1` [Example 175, 1,1,1,3,3,3-Hexafluoropropan-2-yl 1-(2-((1,1-dioxidotetrahydro-2H-thiopyran-4-yl)oxy)-4-(trifluoromethyl)benzyl)-1,8-diazaspiro[4.5]decane-8-carboxylate], for which the inhibition at 1 µM at FAAH [3] is less than 25%; on MAGL [5], more than 75%; on ABHD6 [6], less than 25%. For the same molecule, the IC50 at FAAH [3] was more than 1 µM; on MAGL [5], less than 0.1 µM; at ABHD6 [6], more than 1 µM.

Consider `O=C(OC(C(F)(F)F)C(F)(F)F)N1CCC2(CCCN2Cc2cccc(N3CCC(F)(F)CC3)c2Cl)CC1` [Example 111, 1,1,1,3,3,3-Hexafluoropropan-2-yl 1-(2-chloro-3-(4,4-difluoropiperidin-1-yl)benzyl)-1,8-diazaspiro[4.5]decane-8-carboxylate], for which the values for the inhibition at 1 µM on FAAH [3], at MAGL [5] and on ABHD6 [6] were less than 25%, more than 75% and less than 25%, respectively. The figures for the IC50 on FAAH [3], on MAGL [5] and at ABHD6 [6] were more than 1 µM, less than 0.1 µM and more than 1 µM, respectively.

With `CC(=O)N1CCCc2cccc(CN3CCCC34CCN(C(=O)OC(C(F)(F)F)C(F)(F)F)CC4)c21` [Example 142, 1,1,1,3,3,3-Hexafluoropropan-2-yl 1-((1-acetyl-1,2,3,4-tetrahydroquinolin-8-yl)methyl)-1,8-diazaspiro[4.5]decane-8-carboxylate], the inhibition at 1 µM is less than 25% on FAAH [3], more than 75% on MAGL [5] and less than 25% at ABHD6 [6]. Moreover, the IC50 at FAAH [3] is more than 1 µM; on MAGL [5] it was 0.1 to 1 µM; on ABHD6 [6], more than 1 µM.

Turning to `O=C(OC(C(F)(F)F)C(F)(F)F)N1CCC2(CCCN2Cc2cccc(N3CCOCC3)c2)CC1` [Example 69, 1,1,1,3,3,3-Hexafluoropropan-2-yl 1-(3-morpholinobenzyl)-1,8-diazaspiro[4.5]decane-8-carboxylate], the inhibition at 1 µM at FAAH [3] is less than 25%; on MAGL [5], more than 75%; at ABHD6 [6], less than 25%. At ABHD6 [6], this molecule displayed an IC50 of more than 1 µM.

As to `O=C(OC(C(F)(F)F)C(F)(F)F)N1CCC2(CCCN2Cc2cccc(N3CCC(F)CC3)c2Cl)CC1` [Example 110, 1,1,1,3,3,3-Hexafluoropropan-2-yl 1-(2-chloro-3-(4-fluoropiperidin-1-yl)benzyl)-1,8-diazaspiro[4.5]decane-8-carboxylate], the inhibition at 1 µM at FAAH [3] is less than 25%; on MAGL [5] it was more than 75%; on ABHD6 [6], less than 25%. In addition, the values for the IC50 on FAAH [3], on MAGL [5] and on ABHD6 [6] were more than 1 µM, less than 0.1 µM and more than 1 µM, respectively.

Regarding `NC(=O)c1ccc(CN2CCCC23CCN(C(=O)OC(C(F)(F)F)C(F)(F)F)CC3)cc1C(F)(F)F` [Example 181, 1,1,1,3,3,3-Hexafluoropropan-2-yl 1-(4-carbamoyl-3-(trifluoromethyl)benzyl)-1,8-diazaspiro[4.5]decane-8-carboxylate], the results for the inhibition at 1 µM at FAAH [3], on MAGL [5] and at ABHD6 [6] were less than 25%, more than 75% and 25 to 75%, respectively. The concentration for half-maximal inhibition (IC50) is more than 1 µM at FAAH [3], less than 0.1 µM on MAGL [5] and 0.1 to 1 µM at ABHD6 [6].
